# “Also recorded” adds a separate entry of the source. Like-named read-outs stand apart in the source and are kept apart here.
# How the values were obtained:
# [1] = system: pH3(Ser 28) in U2OS cells; assay: Substrate phosphorylation immunofluorescence assay, pH3(Ser 28), U2OS; type: cell-based, human
# Procedure: (§4) After 8 h cells were fixed with 4% PFA for 20 min at room temperature. The fixed cells were washed with PBS. For immunostaining, cells were permeabilized and blocked with PBS containing 10% normal donkey serum (Jackson ImmunoResearch) and 0.1% Triton-X100 for 1 h at room temperature. Primary antibodies against phospho-LATS2 (Ser 83), phospho-histone H3(Ser 28), and anti-phospho-MPM2 (see Table S3 in Supplementary Material) were incubated for 1 h at room temperature. […] Cells were then washed twice with PBS containing 0.1% Triton-X100. […] Fifty fields per well were imaged with quadruplicate wells for each condition. Image analysis was done using the CV7000 image analysis software (Yokogawa Electric Corporation). Between 100 and 1,000 mitotic cells per condition were segmented applying object identification parameters to select for bright MPM2 labeling. Using a nuclear identifier protocol, minimum intensity thresholds were set for pLATS2(Ser 83) and the pH3(Ser 28) signals, and the resulting identified objects were eroded, dilated, and filtered for size by user-defined thresholds. […] The same thresholds were applied for all of the inhibitor-treated samples, which were processed, imaged, and analyzed in parallel with control DMSO-treated cells. Data were fit using a four-parameter, variable slope fit in Prism (GraphPad).
# [2] = system: pLATS2(Ser 83) in RPE1 cells; assay: Substrate phosphorylation immunofluorescence assay, pLATS2(Ser 83), RPE1; type: cell-based, human; conditions: for IC50: Homo sapiens, read-out: pLATS2 (Ser83) IC50
# Procedure: (§1) We employed the protocol described in Figure 3D to analyze substrate phosphorylation in HeLa cells following treatment with all 10 inhibitors in dose–response. Asynchronous cells were incubated with vehicle (DMSO) or different inhibitor doses for 8 h and then fixed and labeled with a mixture of three antibodies directed against pLATS2(Ser 83), pH3(Ser 28), and MPM2 [which detects mitotic phosphoepitopes; ([86])]. While both the anti-pLATS2(Ser 83) and MPM2 antibodies are mouse monoclonals, they are of different IgG subclasses [IgG2b for anti-pLATS2(Ser 83) and IgG1 for MPM2], and can thus be detected with subclass-specific secondary antibodies (Table S3 in Supplementary Material).
# (§2) In control mitotic cells, pLATS2(Ser 83) is concentrated in foci around the spindle poles (Figure 3E; top row – green arrow) and pH3(Ser 28) is on the mitotic chromatin (Figure 3E; top row – red arrow). Selective kinase inhibition should result in loss of one signal but not the other, as illustrated by the example images for specific conditions in Figure 3E (middle and bottom rows). Cells were imaged in 4 channels to visualize pLATS2(Ser 83), pH3(Ser 28), MPM2, and DNA (labeled with Hoechst) and mitotic cells were segmented based on their bright MPM2 labeling (Figure 3E). Intensity and area thresholds were set to select the pLATS2(Ser 83) foci and the pH3(Ser 28)-labeled chromatin in their respective channels in DMSO-treated control cells and the same thresholds were applied for inhibitor-treated cells. The mean fluorescence intensity per pixel was measured to assess the activities of the kinases targeting these two substrate phosphorylation sites.
# (§3) Twelve thousand HeLa cells, 10,000 U2OS cells, or 8,000 RPE1 cells were seeded into 96-well glass-bottom Sensoplates (Greiner) 16 h before inhibitor addition. Prior to seeding, the glass-bottom plates were coated with poly-L-lysine (Sigma). […] After 8 h cells were fixed with 4% PFA for 20 min at room temperature. The fixed cells were washed with PBS. For immunostaining, cells were permeabilized and blocked with PBS containing 10% normal donkey serum (Jackson ImmunoResearch) and 0.1% Triton-X100 for 1 h at room temperature. Primary antibodies against phospho-LATS2 (Ser 83), phospho-histone H3(Ser 28), and anti-phospho-MPM2 (see Table S3 in Supplementary Material) were incubated for 1 h at room temperature. […] Cells were then washed twice with PBS containing 0.1% Triton-X100. Image acquisition in four channels was performed using a CV7000 spinning disk confocal system (Yokogawa Electric Corporation) with a 40 × 0.95 NA U-PlanApo objective and 2560 × 2160 pixel sCMOS camera. […] Fifty fields per well were imaged with quadruplicate wells for each condition. Image analysis was done using the CV7000 image analysis software (Yokogawa Electric Corporation). Between 100 and 1,000 mitotic cells per condition were segmented applying object identification parameters to select for bright MPM2 labeling. Using a nuclear identifier protocol, minimum intensity thresholds were set for pLATS2(Ser 83) and the pH3(Ser 28) signals, and the resulting identified objects were eroded, dilated, and filtered for size by user-defined thresholds. For only the MPM2-positive mitotic cells, the mean fluorescence intensity of the identified pLATS2(Ser 83) and pH3(Ser 28) objects was measured, and the average intensity per cell per well was calculated. The same thresholds were applied for all of the inhibitor-treated samples, which were processed, imaged, and analyzed in parallel with control DMSO-treated cells. Data were fit using a four-parameter, variable slope fit in Prism (GraphPad). Primary and secondary antibody dilutions can be found in Table S3 in Supplementary Material.
# [3] = system: pH3(Ser 28) in HeLa cells; assay: Substrate phosphorylation immunofluorescence assay, pH3(Ser 28), HeLa; type: cell-based, human; conditions: for pHistone H3 (Ser28) IC50: 8 h inhibitor treatment
# Procedure: as §4
# [4] = molecular target: 363 human kinases (including Aurora A/B/C) (Homo sapiens, UniProt P68400); assay: biochemical; type: biochemical; conditions: CK2a, [ATP] 20 µM, read-out: % Enzyme Activity (relative to DMSO controls); for remaining activity at 0.1 µM: 100 nM; for remaining activity at 0.5 µM: 500 nM
# Sequence of 363 human kinases (including Aurora A/B/C) (Homo sapiens, UniProt P68400) (P68400 whole entry): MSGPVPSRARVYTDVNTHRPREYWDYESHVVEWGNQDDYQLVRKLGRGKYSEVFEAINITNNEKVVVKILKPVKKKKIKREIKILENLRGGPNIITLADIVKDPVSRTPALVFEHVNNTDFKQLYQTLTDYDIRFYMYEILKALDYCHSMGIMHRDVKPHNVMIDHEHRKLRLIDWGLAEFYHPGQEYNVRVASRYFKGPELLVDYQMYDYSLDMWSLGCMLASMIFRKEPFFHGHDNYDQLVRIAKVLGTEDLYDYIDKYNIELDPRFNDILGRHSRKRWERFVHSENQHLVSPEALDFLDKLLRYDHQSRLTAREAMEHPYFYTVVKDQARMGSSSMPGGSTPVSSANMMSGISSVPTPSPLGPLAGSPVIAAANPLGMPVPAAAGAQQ
# Description: (§5) However, the Aurora A/B selectivity ratios derived from our in vitro and in vivo data can be compared to prioritize inhibitors.
# [5] = molecular target: T1, 363 human kinases (including Aurora A/B/C) (Homo sapiens, UniProt Q16566); assay: biochemical; type: biochemical; conditions: CAMK4, [ATP] 10 µM; for remaining activity at 0.1 µM: 100 nM; for remaining activity at 0.1 µM / remaining activity at 0.5 µM: read-out: % Enzyme Activity (relative to DMSO controls)
# T1 sequence (Q16566 1-473): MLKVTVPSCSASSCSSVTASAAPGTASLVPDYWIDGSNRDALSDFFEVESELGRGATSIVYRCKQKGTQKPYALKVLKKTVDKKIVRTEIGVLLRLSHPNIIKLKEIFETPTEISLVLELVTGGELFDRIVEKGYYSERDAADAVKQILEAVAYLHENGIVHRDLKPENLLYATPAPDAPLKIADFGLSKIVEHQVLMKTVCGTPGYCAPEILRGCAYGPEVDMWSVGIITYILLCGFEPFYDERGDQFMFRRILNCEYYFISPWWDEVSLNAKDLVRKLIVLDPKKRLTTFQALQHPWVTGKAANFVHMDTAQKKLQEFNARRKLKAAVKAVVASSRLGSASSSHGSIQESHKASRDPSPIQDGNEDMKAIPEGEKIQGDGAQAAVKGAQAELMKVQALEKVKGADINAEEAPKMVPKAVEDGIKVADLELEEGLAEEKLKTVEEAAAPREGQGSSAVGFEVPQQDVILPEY
# Description: as §5
# [6] = molecular target: T2, 363 human kinases (including Aurora A/B/C) (Homo sapiens, UniProt P53778); assay: biochemical; type: biochemical; conditions: P38g; for remaining activity at 0.1 µM: 100 nM; for remaining activity at 0.1 µM / remaining activity at 0.5 µM: read-out: % Enzyme Activity (relative to DMSO controls)
# T2 sequence (P53778 1-367): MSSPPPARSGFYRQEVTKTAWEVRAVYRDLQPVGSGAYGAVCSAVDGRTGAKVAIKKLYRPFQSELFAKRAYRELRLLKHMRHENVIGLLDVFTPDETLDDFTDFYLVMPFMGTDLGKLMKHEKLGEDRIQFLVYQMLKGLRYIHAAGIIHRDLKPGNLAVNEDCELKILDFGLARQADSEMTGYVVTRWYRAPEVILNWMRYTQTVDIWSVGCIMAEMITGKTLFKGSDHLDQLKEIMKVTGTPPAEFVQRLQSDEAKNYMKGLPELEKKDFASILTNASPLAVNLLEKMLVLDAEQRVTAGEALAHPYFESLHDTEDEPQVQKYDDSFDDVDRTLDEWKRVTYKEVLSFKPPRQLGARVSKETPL
# Description: as §5
# [7] = molecular target: 363 human kinases (including Aurora A/B/C) (Homo sapiens, UniProt Q14289); assay: biochemical; type: biochemical; conditions: PYK2; for remaining activity at 0.1 µM: 100 nM; for remaining activity at 0.1 µM / remaining activity at 0.5 µM: read-out: % Enzyme Activity (relative to DMSO controls)
# Sequence of 363 human kinases (including Aurora A/B/C) (Homo sapiens, UniProt Q14289) (Q14289 whole entry): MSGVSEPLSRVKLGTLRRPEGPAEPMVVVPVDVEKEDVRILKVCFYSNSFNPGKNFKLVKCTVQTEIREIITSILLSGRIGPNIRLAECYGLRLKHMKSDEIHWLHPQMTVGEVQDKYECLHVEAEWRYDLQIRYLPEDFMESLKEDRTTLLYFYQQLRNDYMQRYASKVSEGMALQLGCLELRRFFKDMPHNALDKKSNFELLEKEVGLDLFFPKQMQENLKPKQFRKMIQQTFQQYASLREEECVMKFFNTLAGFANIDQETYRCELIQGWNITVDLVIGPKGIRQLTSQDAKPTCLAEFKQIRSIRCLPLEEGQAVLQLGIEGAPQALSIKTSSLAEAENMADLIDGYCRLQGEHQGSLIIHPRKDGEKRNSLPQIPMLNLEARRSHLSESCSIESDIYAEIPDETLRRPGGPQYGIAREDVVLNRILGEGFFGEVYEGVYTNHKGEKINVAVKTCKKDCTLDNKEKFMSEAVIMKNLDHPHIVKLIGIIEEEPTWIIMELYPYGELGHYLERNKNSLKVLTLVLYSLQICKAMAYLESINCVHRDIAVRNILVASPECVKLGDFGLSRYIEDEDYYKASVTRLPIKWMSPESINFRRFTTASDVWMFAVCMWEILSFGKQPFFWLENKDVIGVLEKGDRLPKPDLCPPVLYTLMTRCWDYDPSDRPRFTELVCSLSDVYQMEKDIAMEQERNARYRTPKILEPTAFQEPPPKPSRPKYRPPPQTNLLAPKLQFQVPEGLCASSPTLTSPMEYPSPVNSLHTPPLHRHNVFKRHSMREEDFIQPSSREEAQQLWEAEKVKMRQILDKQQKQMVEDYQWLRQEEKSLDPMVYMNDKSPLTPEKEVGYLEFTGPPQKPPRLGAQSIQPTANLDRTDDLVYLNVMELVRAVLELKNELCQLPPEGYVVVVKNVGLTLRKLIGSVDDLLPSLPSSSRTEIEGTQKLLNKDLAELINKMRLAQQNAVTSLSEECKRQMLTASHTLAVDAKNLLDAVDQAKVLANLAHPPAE
# Description: as §5
# [8] = system: pLATS2(Ser 83) in U2OS cells; assay: Substrate phosphorylation immunofluorescence assay, pLATS2(Ser 83), U2OS; type: cell-based, human; conditions: for IC50: Homo sapiens, read-out: pLATS2 (Ser83) IC50
# Procedure: as §1, §2, §3
# [9] = Homo sapiens, 8 h, read-out: pHistone H3 (Ser28) IC50
Structure (SMILES),remaining activity at 0.1 µM [4] [%],remaining activity at 0.1 µM [5] [%],remaining activity at 0.1 µM [6] [%],remaining activity at 0.1 µM [7] [%],pHistone H3 (Ser28) IC50 [3],remaining activity at 0.5 µM [4] [%],remaining activity at 0.5 µM ([5]; 500 nM) [%],remaining activity at 0.5 µM ([6]; 500 nM) [%],remaining activity at 0.5 µM ([7]; 500 nM) [%],also measured
CCn1cc(-c2ccnc3[nH]c(-c4cccc(CN(C)C)c4)cc23)c(-c2ccc(NC(=O)N(C)C)cc2)n1 [GSK1070916],99.6,98.5,115,95.3,,,,,,"IC50 [1, 9]: 8 nM; pLATS2 (Ser83) IC50 ([2]; RPE1, 8 h inhibitor treatment): NE@200 nM; Concentration completely eliminating pH3(Ser 28) labeling without affecting pLATS2(Ser 83) labeling [3]: < 100 nM; IC50 [3, 9]: 6 nM; pLATS2 (Ser83) IC50 ([8]; 8 h inhibitor treatment): NE@200 nM"
O=C(O)[C@]1(Cc2cccc(Nc3nccs3)n2)CC[C@@H](Oc2cccc(Cl)c2F)CC1 [MK-5108],104,93.4,100,41.2,NE (9 μM); also recorded: NE@9 μM,105,99.8,112,16.4,"inhibition at 15 µM ([1]; Homo sapiens, read-out: pHistone H3 (Ser28) inhibition at highest concentration tested): 20%; IC50 ([2]; RPE-1, 8 h): 1800 nM; IC50 ([8]; 8 h): 1200 nM"
O=C(c1cccc(Cl)c1F)N1CCN(Cc2cccc(Nc3nccs3)n2)CC1 [MK-8745],,,,,NE (9 μM); also recorded: NE@9 µM,91.9,102,110,83.5,"pHistone H3 (Ser28) IC50 ([1]; 8 h inhibitor treatment): NE@15 µM; IC50 ([2]; RPE-1, RPE1, 8 h inhibitor treatment): 2300 nM; % Enzyme Activity (relative to DMSO controls) ([5]; 500 nM): 101.38%; % Enzyme Activity (relative to DMSO controls) ([6]; 500 nM): 107.28%; % Enzyme Activity (relative to DMSO controls) ([7]; 500 nM): 80.17%; IC50 ([8]; 8 h inhibitor treatment): 1700 nM"
